# Results taken from US9181290B2, “Inhibition of biofilm formation by 1,2,3,4,6-penta-O-galloyl-D-glucopyranose” (CHANG GUNG UNIVERSITY, priority 2011, dated 2015).
# “Also recorded” adds a separate entry of the source.
# How the values were obtained:
# [1] = tested on: clinical strains SA289, SA44, SA435 and SA703; test: Biofilm formation by four less sensitive clinical strains at 50 μM (data not shown); type: cell-based, Staphylococcus aureus; details: across the four clinical strains
# Experimental: (§1) An overnight bacterial culture was 200-fold diluted with TSBg, and a 200 μL aliquot of the diluted culture was seeded into each well of 96-well polystyrene microtiter plates and incubated at 37° C. for a designated period of time. Cell growth was determined by measuring the absorbance at 578 nm (A578) with a microtiter plate reader (SpectraMax 340, Molecular Devices). After washing with PBS twice to remove suspended cells, the wells were stained with 0.1% (w/v) crystal violet in 10% ethanol and then treated with 30% acetic acid in dH2O, followed by detecting the absorbance at 595 nm (A595) with the microtiter plate reader to quantify the amount of biofilm formed on polystyrene surface.
# [2] = tested on: S. aureus SA113; test: Adherence assay: β-PGG added at different times after inoculation, biofilm by crystal violet at 6 hours; type: cell-based, Staphylococcus aureus; details: for reduction of biofilm formation: read at 6 hours
# Experimental: At 6 hours after seeding, the wells were subjected to crystal violet staining to determine the amounts of biofilm formed on the inner surfaces of the wells of polystyrene microtiter plates or on the polycarbonate discs.
# [3] = tested on: S. aureus SA113; test: CFU counting of cells adhered to polycarbonate surface; type: cell-based, Staphylococcus aureus
# Description: To count the number of viable cells, the removed suspended cells were suspended in PBS by pipetting, and the resultant cell suspension was sonicated and serially diluted and subsequently plated on TSBg agar plate for colony forming unit (CFU) counting according to a method described earlier (S. Schlag et al. (2007), J. Bacteriol., 189:7911-7919).
# To quantify the amount of biofilm formed on polycarbonate surface, a 13-mm-diameter polycarbonate disc (Thermanox, Nalgene Nunc International, Rochester, N.Y., USA) was placed in a well of a 24-well microtiter plate, followed by the addition of 1 mL aliquot of the diluted bacterial culture. After incubation at 37° C. for a designated period of time, viable cells were washed off the surface of the polycarbonate disc with PBS and counted as described above, while the PBS-washed polycarbonate disc was subjected to crystal violet staining for biofilm quantification as described above.
# In addition to biofilm formation, the number of cells attached to polystyrene surface and polycarbonate surface were also counted.
# [4] = tested on: S. epidermidis RP62A (ATCC 35984); test: Growth (A578) and biofilm (A595) in polystyrene plates; type: cell-based, Staphylococcus epidermidis
# Experimental: (§2) In addition to the above S. aureus strains, S. epidermidis ATCC 35547 and S. epidermidis RP62A (ATCC 35984) were also studied for comparison.
# as §1
# [5] = tested on: S. epidermidis ATCC 35547; test: as above; type: cell-based, Staphylococcus epidermidis; details: 12.5 μM β-PGG, 6 hr
# Experimental: as §2, §1
# [6] = tested on: S. carnosus TM300; test: as above; type: cell-based; details: 12.5 μM β-PGG, 6 hr
# Experimental: as §2, §1
# [7] = tested on: S. aureus SA113 (ATCC 35556); test: Bacterial growth (A578) and biofilm formation (crystal violet, A595) in 96-well polystyrene microtiter plates; type: cell-based, Staphylococcus aureus; details: for Biofilm (%) / Growth (%): 6 hours after seeding, control = 100%, mean ± SD
# Experimental: as §1
# An overnight culture of S. aureus SA113 was 200-fold diluted with TSBg, and a 200 μL aliquot of the diluted culture was seeded into each well of 96-well microtiter plates. Compounds purified from medicinal plants were added into each well at a designated concentration up to […]. At 6 hours after seeding, the amounts of biofilms formed in the wells were determined by crystal violet staining as described above. Cells treated with either distilled water or DMSO were used as a control. The amount of biofilm formation by the control group was set as 100%. Each experiment was repeated at least three times, with n=6 for each sample tested. The concentrations of compounds that inhibited 50% biofilm formation (IB50) were calculated based on logistic regression analysis results. Besides, the biofilm formation inhibition rate of a PGG-treated group was calculated using the following equation (1). Biofilm formation inhibition rate(%)=[(A−B)/A]×100 (1) wherein:
# In the wells of 96-well microtiter plates, S. aureus SA113 cells were cultured in TSBg broth in the presence of either β-PGG or α-PGG at different amounts (0, 1 and 10 μM). After incubation at 37° C. for 6 hrs, the cell density was determined by measuring the absorbance at 578 nm (A578), and the amounts of biofilm were quantified by crystal violet staining, with the amount of biofilm formed by untreated bacterial cells being set as 100%. Each experiment was repeated three times, with n=6 for each sample tested.
# To determine the effect(s) of (β-PGG upon bacterial growth and biofilm formation, β-PGG in various amounts (final concentration: 0, 1.56, 3.13, 6.25, 12.5, 25 and 50 μM) was added into the culture of S. aureus SA113 during seeding into the wells of polystyrene microtiter plates, followed by incubation at 37° C. for 6 hrs or 24 hrs. Cell growth was determined by measuring the absorbance at 578 nm, and the amount of biofilm formed on polystyrene surface was determined at 595 nm after crystal violet staining. In addition to polystyrene surface, the effect of β-PGG in inhibiting biofilm formation on polycarbonate surface was also examined according to the procedures as described in the preceding section entitled “Materials and methods.”
# [8] = tested on: S. aureus SA113Δica (ATCC 35556Δica::tet); test: Biofilm formation by ica deletion mutant on polystyrene surface; type: cell-based, Staphylococcus aureus; details: 6 hrs
# Experimental: as §1
compound,measurement,setting,value
"O=C(OC[C@H]1O[C@@H](OC(=O)c2cc(O)c(O)c(O)c2)[C@H](OC(=O)c2cc(O)c(O)c(O)c2)[C@@H](OC(=O)c2cc(O)c(O)c(O)c2)[C@@H]1OC(=O)c1cc(O)c(O)c(O)c1)c1cc(O)c(O)c(O)c1 [β-PGG, 1,2,3,4,6-penta-O-galloyl-β-D-glucopyranose]",reduction of biofilm formation,[1],83-97%
same,reduction of biofilm formation,"[2]; 6.25 μM added at 0.5 hr after inoculation, DMSO = 100%",62%
same,reduction of biofilm formation,"[2]; 6.25 μM added at 1 hr after inoculation, DMSO = 100%",19%
same,reduction of biofilm formation,[2]; 12.5 μM added at 0.5 and 1 hr after inoculation,more than 90%
same,inhibition of biofilm formation,[2]; added at 1.5 and 2 hr after inoculation,not inhibited
same,time of addition after seeding at which β-PGG is effective,[2]; added into the culture medium after seeding,≤ 1 h
same,number of cells attached to polycarbonate surface,"[3]; 6.25 μM, 20 min, DMSO control 7×10^5",2.9×10^5 CFU
same,number of cells attached to polycarbonate surface,"[3]; 6.25 μM, 40 min, DMSO control 1.1×10^6",2.3×10^5 CFU
same,number of cells attached to polycarbonate surface,"[3]; 6.25 μM, 60 min, DMSO control 2×10^6",3.5×10^5 CFU
same,number of cells attached to polycarbonate surface,"[3]; 12.5 μM, 20 min, DMSO control 7×10^5",1.0×10^5 CFU
same,number of cells attached to polycarbonate surface,"[3]; 12.5 μM, 40 min, DMSO control 1.1×10^6",8×10^4 CFU
same,number of cells attached to polycarbonate surface,"[3]; 12.5 μM, 60 min, DMSO control 2×10^6",5×10^4 CFU
same,reduction of biofilm formation,[4]; 12.5 μM,35%
same,Growth (A578),"[4]; 12.5 μM β-PGG, 6 hr, 0 μM: 0.57 ± 0.09",0.56 ± 0.09
same,Biofilm (A595),"[4]; 12.5 μM β-PGG, 6 hr, 0 μM: 6.43 ± 0.04",4.18 ± 0.54
same,Growth (A578),[5]; 0 μM: 0.50 ± 0.01,0.42 ± 0.01
same,Biofilm (A595),[5]; 0 μM: 1.42 ± 0.09,0.15 ± 0.11
same,Biofilm (A595),"[6]; 0 μM: 0.12 ± 0.01, non-biofilm negative control strain",0.10 ± 0.01
same,Growth (A578),[6]; 0 μM: 0.69 ± 0.02,0.70 ± 0.01
same,viability of S. aureus SA113 cells (A578),"[7]; 1 μM and 10 μM, 6 hour incubation (anomer comparison)",did not affect the viability
same,reduction of biofilm formation,"[7]; 1 μM, 6 hour incubation (anomer comparison)",10%
same,killing of S. aureus SA113,[7]; 10 μM,did not kill S. aureus SA113
same,reduction of biofilm formation,"[7]; 10 μM, 6 hour incubation (anomer comparison)",65%
same,Biofilm (%),[7]; 10 μM,5 ± 1%
same,Growth (%),[7]; 10 μM,109 ± 8%
same,Growth (A578),"[7]; 12.5 μM β-PGG, 6 hr, 0 μM: 0.68 ± 0.02",0.65 ± 0.03
same,Biofilm (A595),"[7]; 12.5 μM β-PGG, 6 hr, 0 μM: 6.31 ± 0.34",0.26 ± 0.28
same,reduction of biofilm formation,"[7]; 100 μM, 6 hours",98%
same,Biofilm (%),[7]; 100 μM,2 ± 0%
same,Growth (%),[7]; 100 μM,69 ± 5 %
same,amounts of biofilm on polystyrene surface after 24 hr incubation,[7]; 24 hrs,approximately equal to those observed after 6 hr incubation
same,inhibition at 6.25 µM,"[7]; Staphylococcus aureus, ATCC35556, 6.25 μM, 6 hrs, read-out: inhibition of biofilm formation on polystyrene surface",93%
same,inhibition at 10 µM,"[7]; Staphylococcus aureus, ATCC35556, 10 μM, 6 hr incubation (screening)",95%
same,inhibition at 12.5 µM,"[7]; Staphylococcus aureus, ATCC35556, 12.5 μM, 6 hrs, read-out: inhibition of biofilm formation on polystyrene surface",96%
same,inhibition at 25 µM,"[7]; Staphylococcus aureus, ATCC35556, 25 μM, 6 hrs, read-out: inhibition of biofilm formation on polystyrene surface",97%
same,inhibition at 100 µM,"[7]; Staphylococcus aureus, ATCC35556, 100 μM, 6 hours",31%
same,IC50,"[7]; Staphylococcus aureus, ATCC35556, 6 hours, logistic regression, read-out: IB50 (concentration that inhibited 50% biofilm formation)",3.6 µM
same,viability of S. aureus SA113,"[7]; concentrations below 50 μM, 6 hours incubation",did not affect the viability; also recorded: did not kill S. aureus SA113 cells
same,Cell Growth (%),[7]; growth compared to untreated control at the concentration of IB50,100%
same,"effect on biofilm formation by the mutant, polystyrene surface",[8]; 1.56 μM,did not affect the biofilm formation
same,"decrease of the amount of biofilm, polystyrene surface",[8]; 3.13 μM,72%
